The values below are quoted from earlier work in patent US6696276B2, “Vasopermeability-enhancing conjugates” (priority 1988, dated 2004).

The structures appear in SMILES notation.

For the data set the following is noted: as little as.
For the molecule `CCCCC/C=C\C\C=C/C=C/C=C/[C@@H](SC[C@H](N)C(=O)O)[C@@H](O)CCCC(=O)O` [leukotriene E4], the “amount eliciting erythema and wheal formation” value was 1 nmol. As for `CCCCC/C=C\C\C=C/C=C/C=C/[C@@H](SC[C@H](N)C(=O)NCC(=O)O)[C@@H](O)CCCC(=O)O` [leukotriene D4], the “amount eliciting erythema and wheal formation” value was 1 nmol. Consider `CCCCC/C=C\C\C=C/C=C/C=C/[C@@H](SC[C@H](NC(=O)CC[C@H](N)C(=O)O)C(=O)NCC(=O)O)[C@@H](O)CCCC(=O)O` [leukotriene C4], for which the “amount eliciting erythema and wheal formation” value is 1 nmol.
